Measured values as given in patent publication US7488720B2, “A1 adenosine receptor agonists” (CV Therapeutics, Inc., priority 2005, dated 2009).

Assay: Blood brain penetration assay (in situ brain perfusion)
Format: in vivo
Details: rat in situ brain perfusion, 5 μM, 1 min, left cerebrum
Protocol: Studies of transport of the compounds of Formula I were carried out in accordance with an in situ brain perfusion technique disclosed in “Methods in Molecular medicine, Vol. 89, pp209-218, by Quentin R. Smith and David D. Allen
Anesthesia: Cocktail of 90 mg/kg ketamine/9 mg/kg xylazine was given at a volume of […] as i.m. injection.
Surgery and perfusion: The left common carotid artery was cannulated, the chest opened and the heart severed. The brain was perfused at 10 ml/min for a predetermined duration of time, followed by post-perfusion with perfusion solution for 30 seconds.
A stock solution of the test drug was prepared as a solution of […] in DMSO.
C. Treatment • 1. Three rats per group were infused with the study compounds or a control compound via the left common carotid artery. • 2. Brain and perfusion solution samples were obtained at the end of the perfusions. D. Sample Collection • 1. Brains were collected and the left hemispheres or regions thereof were segmented and flash frozen in liquid nitrogen. • 2. A sample of the perfusion solution was also taken after each perfusion into an Eppendorf tube, and stored at −80° C. in separate container from the brain samples. • 3. When necessary, prior to the perfusion, blood samples were collected in tubes prepared with study anticoagulant. Whole blood was centrifuged at 8000 rpm for 3 minutes. Plasma was collected into Eppendorf tubes and frozen at −80° C. in separate container from the brain samples. E. Analytical and Data Analysis
Concentrations of study and marker compounds in all samples was measured using LC/MS-MS (and/or LC-UV technique when applicable) and permeability kinetics were determined.

Row | rate of penetration of the blood brain barrier [pmol/g/s] | SMILES
1 | 61.5 | CN(C)CCCN1c2ccccc2Sc2ccc(Cl)cc21 [Chlorpromazine, reference compound]
2 | 0.015 | O=C(NCc1nc(NC2CCCC2)c2ncn([C@@H]3O[C@H](CO)[C@@H](O)[C@H]3O)c2n1)c1ccc(S(=O)(=O)O)cc1 [Example 6A, 4-[N-({9-[(4S,2R,3R,5R)-3,4-dihydroxy-5-(hydroxymethyl)oxolan-2-yl]-6-(cyclopentylamino)purin-2-yl}methyl)carbamoyl]benzenesulfonic acid]
3 | 0.10 | O=C(CS(=O)(=O)O)NCc1nc(NC2CCCC2)c2ncn([C@@H]3O[C@H](CO)[C@@H](O)[C@H]3O)c2n1 [Example 6B, N-({9-[(4S,2R,3R,5R)-3,4-dihydroxy-5-(hydroxymethyl)oxolan-2-yl]-6-(cyclopentylamino)purin-2-yl}methyl)carbamoylmethylsulfonic acid]
